Results from patent US9221835B2, “Spirocyclic derivatives as antiparasitic agents” (Zoetis Services LLC, priority 2012, dated 2015).

How the values were obtained:
Type in all cases: in vivo
[1] = test system: Flea (Ctenocephalides felis); assay: Flea (Ctenocephalides felis) Membrane Feed Assay-Adult; settings: adult fleas fed on treated citrated bovine blood for 24 hours, lowest dose to cause mortality ≧50%, half-log intervals, read-out: Minimum Effective Concentration (MEC)
Description: Flea (Ctenocephalides felis) Membrane Feed Assay-Adult
Compounds were dissolved in DMSO and aliquots were added to citrated bovine blood in membrane covered wells warmed to 37° C. Adult fleas were newly emerged (3-7 days) and unfed. Feeding wells containing approximately 10 adult fleas were placed onto the treated blood wells, and the fleas were allowed to feed on the treated blood for 24 hours. […] Each compound was tested at half-log intervals, and endpoint data was recorded as Minimum Effective Concentration in μM. MEC is a subjective visual assessment of organism viability, and is the lowest dose to cause mortality ≧50%.

[2] = test system: Soft Tick (Ornithidorus turicata); assay: Soft Tick (Ornithidorus turicata) Blood Feed Assay; settings: nymph stage ticks fed on treated citrated bovine blood; paralysis and/or death observed at approximately 24, 48 and 72 hours
Description: Soft Tick (Ornithidorus turicata) Blood Feed Assay
Compounds of the present invention were dissolved in dimethylsulfoxide (DMSO) and aliquots added to citrated bovine blood in a membrane covered Petri dish. The Petri dish is placed on a warming tray. Approximately 5 nymph stage ticks are placed onto the membrane, covered, and left to feed. Fed ticks are removed and placed into a Petri dish with sand. […] Endpoint data was recorded as a 100% lethal dose (LD^100) in μg/mL.

[3] = test system: Mosquito (Aedes aeqypti) larvae; assay: Mosquito (Aedes aeqypti) Larval Assay; settings: first instar larvae, 25° C., 24 hours, lowest dose to inhibit motility ≧50% of untreated controls, half-log intervals, read-out: Minimum Effective Concentration (MEC)
Description: Mosquito (Aedes aeqypti) Larval Assay
Compounds were dissolved in DMSO and aliquots were spotted to empty wells. First instar mosquito larvae and maintenance media were added to the wells to obtain between 8 and 15 larvae per well in the appropriate final assay volume. Larvae were incubated in the treated media at 25° C. for 24 hours. Mosquito larvae motility was measured at 24 hours. Each compound was tested at half-log intervals, and endpoint results were recorded as Minimum Effective Concentration (MEC) in μM. MEC is an objective assessment of organism motility, and is the lowest dose to inhibit motility ≧50% of untreated controls.

| Structure (SMILES) | minimal effective concentration [1] | 100% lethal dose (LD100) [2] | minimal effective concentration [3] |
| --- | --- | --- | --- |
| CS(=O)(=O)CC(=O)N1CC2(C1)OCc1cc(C3=NCC(c4cc(Cl)c(Cl)c(Cl)c4)(C(F)(F)F)C3)ccc12 (stereo not drawn) [Example 1, 2-(methylsulfonyl)-1-(5′-(3-(3,4,5-trichlorophenyl)-3-(trifluoromethyl)-3,4-dihydro-2H-pyrrol-5-yl)-3′H-spiro[azetidine-3,1′-isobenzofuran]-1-yl)ethanone] | 0.3 µM | 0.03 µg/mL | 0.1 µM |
| CC(C)C(=O)N1CC2(C1)OCc1cc(C3=NCC(c4cc(Cl)cc(Cl)c4)(C(F)(F)F)C3)ccc12 (stereo not drawn) [Example 6, 5′-(3-(3,5-dichlorophenyl)-3-(trifluoromethyl)-3,4-dihydro-2H-pyrrol-5-yl]-1-isobutyryl-3′H-spiro[azetidine-3,1′-[2]benzofuran]] | 1 µM | 0.03 µg/mL | 0.1 µM |
| CS(=O)(=O)CC(=O)N1CC2(C1)OCc1cc(C3=NNC(c4cc(Cl)c(F)c(Cl)c4)(C(F)(F)F)C3)ccc12 (stereo not drawn) [Example 13, 1-(5′-(5-(3,5-dichloro-4-fluorophenyl)-5-(trifluoromethyl)-4,5-dihydro-1H-pyrazol-3-yl)-3′H-spiro[azetidine-3,1′-isobenzofuran]-1-yl)-2-(methylsulfonyl)ethanone] | ≥ 3 µM | 0.03 µg/mL | 0.1 µM |
| CS(=O)(=O)CC(=O)N1CC2(C1)OCc1cc(N3CCC(c4cc(Cl)c(F)c(Cl)c4)(C(F)(F)F)C3)ccc12 (stereo not drawn) [Example 22, 1-(5-(3-(3,5-dichloro-4-fluorophenyl)-3-(trifluoromethyl)pyrrolidin-1-yl)-3′H-spiro[azetidine-3,1′-isobenzofuran]-1-yl)-2-(methylsulfonyl)ethanone] | ≥ 3 µM | 0.03 µg/mL | > 3 µM |
| CS(=O)(=O)CC(=O)N1CC2(C1)OCc1cc(N3CCC(c4cc(Cl)c(Cl)c(Cl)c4)(C(F)(F)F)C3)ccc12 (stereo not drawn) [Example 26, 5′-[3-(3,4,5-trichloro)-3-(trifluoromethyl)pyrrolidin-1-yl]-1-[(methylsulfonyl)acetyl]-3′H-spiro[azetidine-3,1′-[2]benzofuran]] | ≥ 3 µM | 0.1 µg/mL | > 3 µM |
| CC(C)C(=O)N1CC2(C1)OCc1cc(C3=NOC(c4cc(Cl)c(F)c(Cl)c4)(C(F)(F)F)O3)ccc12 (stereo not drawn) [Example 28, 1-(5′-(5-(3,5-dichloro-4-fluorophenyl)-5-(trifluoromethyl)-1,4,2-dioxazol-3-yl)-3′H-spiro[azetidine-3,1′-isobenzofuran]-1-yl)-2-methyl propan-1-one] | ≥ 3 µM | 0.1 µg/mL | 0.3 µM |
| CC(C)C(=O)N1CC2(C1)OCc1cc(C3=NOC(c4cc(Cl)c(Cl)c(Cl)c4)(C(F)(F)F)O3)ccc12 (stereo not drawn) [Example 31] | ≥ 3 µM | 0.3 µg/mL | 0.3 µM |
